These results are taken from patent publication US20150038707A1, “PROCESS FOR MAKING CGRP RECEPTOR ANTAGONISTS” (Merck Sharp & Dohme Corp., priority 2012, published 2015).

The structures appear in SMILES notation.

Test [1] has as its system Ae. aegypti Houston strain (pyrethroid susceptible). Briefly: Toxicity assay on treated netting (Example 7), Houston strain. Type of test: in vivo. As for the experimental part:
(§1) Several compounds were tested to determine their toxic effect on Ae. aegypti mosquitoes. Three mosquito strains were tested—Houston which is pyrethroid susceptible, That which is pyrethroid tolerant and Isla Mujer which is metabolically pyrethroid resistant.
(§2) The toxicity assay involved a single chamber to which treated netting was added. Twenty (20) mosquitoes were transferred to the chamber. After 1 hour, the number of knocked down mosquitoes was recorded and all mosquitoes were transferred to holding cartoons. The mosquitoes were given a 10% sucrose-soaked cotton ball and returned to the insectary. Mortaility was measured after 24 hours. A control assay using acetone-treated netting was used. Six replicates were performed at each treatment concentration.

Test [2] deals with KDR Resisant An. Gambiae. Kind of test: Bottle toxicity assay (Example 8), knockdown resistant mosquitoes. It counts as in vivo, Anopheles gambiae. Conditions: for KDR Resisant An. Gambiae (% dead (SE)): Strain Tested F123; for effectiveness against knockdown resistant strains: summary of Table 3. As for the experimental part: (§3) Several compounds were tested to determine their toxic effect on knockdown resistant Anopheles gambiae mosquitoes and susceptible mosquitoes. Acetone and different amounts of pesticides were added to 250 ml bottles. In one bottle, only acetone was added as a control. The bottles were rotated in all directions while uncapped until all acetone was evaporated and the insecticide was coated onto the inside surfaces of the bottle. A number of knockdown resistant Anopheles gambiae mosquitoes were added to the bottle. The number of dead mosquitoes was recorded at 1 hour and 24 hours.

The test system of test [3] is Susceptible An. Gambiae. Briefly: Bottle toxicity assay (Example 8), susceptible mosquitoes. It counts as in vivo, Anopheles gambiae. To be noted: Strain Tested F123. As for the experimental part:
as §3

Test [4] relates to Ae. aegypti Isla mujeres strain (metabolically pyrethroid resistant). Kind of test: Toxicity assay on treated netting (Example 7), Isla mujeres strain. Type of test: in vivo. As for the experimental part: as §1, §2
Test [5] concerns Ae. aegypti Thai strain (pyrethroid tolerant). Briefly: Toxicity assay on treated netting (Example 7), Thai strain. It counts as in vivo. As for the experimental part:
as §1, §2

For test [6], the system named is Ae. Aegypti, That strain (pyrethroid tolerant). Kind of test: Contact irritancy on pyrethroid tolerant mosquitoes (Example 5). It counts as in vivo. As for the experimental part:
(§4) Four compounds of formula (I) were tested for contact irritancy (i.e., movement away from the source after physical contact) at low doses on female Aedes aegypti (Thailand strain) mosquitoes. The contact irritant response was determined by use of the contact irritant assay disclosed by Grieco et al. in “A New Classification System for the Actions of IRS Chemicals Traditionally Used for Malaria Control,” Plos One, Issue 8 (2007) (available at www.plosone.org). The assay used was a cylindrical assembly that included a metal treatment end to which 10 mosquitoes were introduced and a clear receiving chamber. The treatment end included a netting strip (nylon organdy) that was treated with the insecticide of interest at the relevant dose. A butterfly valve separated the treatment end from the remainder of the assembly.
(§5) Each composition was applied to the netting strip at a varied dose via a 1.5 ml acetone solution. Four (4) treatment concentrations were used—0.0025 nmol/cm^2, 0.025 nmol/cm^2, 0.25 nmol/cm^2 and 2.5 nmol/cm^2. Netting was allowed to dry for 15 minutes prior to placement in the cylinder. Control assays were performed with netting treated with acetone only.
(§6) For each run, 10 mosquitoes were transferred into the treatment end of the assembly and, after 30 seconds, the butterfly valve was opened. The valve was closed after 10 minutes and the number of mosquitoes in the clear end (i.e., the number of escaped mosquitoes) was tested.
The contact irritancy protocol of Example 2 was used to determine contact irritancy against mosquitoes (Ae. Aegypti) that had acquired metabolic resistance against pyrethroids. Alphacypermethrin and transfluthrin were also tested. Three mosquito strains were tested—Houston which is pyrethroid susceptible, That which is pyrethroid tolerant and Isla Mujer which is metabolically pyrethroid resistant.

Test [7] concerns female Aedes aegypti (Thailand strain) mosquitoes. Kind of test: Contact irritancy assay on mosquitoes (Example 2). Type of test: in vivo. Conditions: netting treated at 0.0025-2.5 nmol/cm^2. As for the experimental part: as §4, §5, §6
For test [8] the test system is unchanged. Briefly: Contact irritancy and spatial repellency screening (Example 4). It counts as in vivo. To be noted: Dosage 25 nmol/cm^2; mapped with 3000 other compounds. As for the experimental part: as §4
(§7) The four compounds of formula I described in Example 2 were tested for spatial repellency (directed movement away from the chemical source without the insect making physical contact with the treated surface) at low doses on female Aedes aegypti (Thailand strain) mosquitoes. The spatial repellency response was determined by use of the spatial repellency assay disclosed by Grieco et al. in “A New Classification System for the Actions of IRS Chemicals Traditionally Used for Malaria Control” in Plos One, Issue 8 (2007) (available at www.plosone.org) which is incorporated herein by reference for all relevant and consistent purposes. The assay used was a cylindrical assembly that included a treatment chamber at one end and a control chamber at the other end. The treatment chamber included a netting strip (nylon organdy) that was treated with the insecticide of interest at the relevant dose. The treatment chamber and control chamber were connected by a clear cylinder and were separated from the clear cylinder by butterfly valves. Twenty (20) mosquitoes were introduced into the clear central chamber and the butterfly valves were opened after 30 seconds. After 10 minutes, the valves were closed and the number of mosquitoes in each chamber was counted.
Dosage was 25 nmol/cm^2. Several known compounds were also mapped for comparison—alphacypermethrin, cypermethrin, propoxur, bendiocarb, permethrin, SS220, DDT, deet and chlorpyrifos.

For test [9], the system named is Ae. Aegypti strains Houston, That and Isla Mujer. Briefly: Spatial repellency on metabolically resistant mosquitoes (Example 6). It counts as in vivo. As for the experimental part:
as §7
The spatial repellency protocol of Example 3 was used to determine spatial repellency against mosquitoes (Ae. Aegypti) that had acquired metabolic resistance against pyrethroids. DDT and transfluthrin were also tested. Three mosquito strains were tested—Houston which is pyrethroid susceptible, That which is pyrethroid tolerant and Isla Mujer which is metabolically pyrethroid resistant.

The mark [10] stands for this setting: Dose 0.25 nm/cm^2, Time 24 hours.
The mark [11] stands for this setting: Dose 2.5 nm/cm^2, Time 24 hours.
Where [12] appears, read: Dose 0.25 μg/bottle, Time 1 hour.
[13] abbreviates: Dose 0.25 μg/bottle, Time 24 hours.
Where [14] appears, read: Dose 2.5 μg/bottle, Time 1 hour.
The mark [15] stands for this setting: Dose 2.5 μg/bottle, Time 24 hours.
[16] abbreviates: Dose 0.025 nm/cm^2, Time 1 hour.
The mark [17] stands for this setting: Dose 0.025 nm/cm^2, Time 24 hours.
The mark [18] stands for this setting: Dose 0.0025 μg/bottle, Time 1 hour.
The mark [19] stands for this setting: Dose 0.0025 μg/bottle, Time 24 hours.
Where [20] appears, read: Dose 0.025 μg/bottle, Time 1 hour.
The mark [21] stands for this setting: Dose 0.025 μg/bottle, Time 24 hours.

On to `CC1(C)C(C=C(Cl)Cl)C1C(=O)OCc1cccc(Oc2ccccc2)c1` (stereo not drawn) [Permethrin, permethrin, reference compound], for which the “Houston (% dead (SE))” value in [1] (Dose 0.25 nm/cm^2, Time 1 hour) is reported as 100%; in [1] (setting [10]) it was 100%; in test [1] (Dose 2.5 nm/cm^2, Time 1 hour), 100%; in [1] (setting [11]), 100%. Moreover, the “KDR Resisant An. Gambiae (% dead (SE))” value in test [2] (setting [12]) is given as 0%; in test [2] (setting [13]) it was 24%; in test [2] (setting [14]), 25%; in test [2] (setting [15]) it was 78%. Further, the “effectiveness against knockdown resistant strains” value in test [2] is “less effective”. Besides, the “Susceptible An. Gambiae (% dead (SE))” value in test [3] (setting [12]), in test [3] (setting [13]), in test [3] (setting [14]) and in [3] (setting [15]) was 100% in each case. The “Isla mujeres (% dead (SE))” value was 87.49% in test [4] (Dose 0.25 nm/cm^2, Time 1 hour); 14.68% in [4] (setting [10]); 100% in test [4] (Dose 2.5 nm/cm^2, Time 1 hour); 100% in [4] (setting [11]).

Regarding `C/C=C/C1C(C(=O)OCc2c(F)c(F)c(COC)c(F)c2F)C1(C)C` (stereo in doubt) [Metafluthrin, metafluthrin, reference compound], the “Thai (% dead (SE))” value in test [5] (setting [16]) is reported as 100%; in test [5] (setting [17]), 89.2%; in test [5] (Dose 0.25 nm/cm^2, Time 1 hour), 100%; in test [5] (setting [10]), 100%; in test [5] (Dose 2.5 nm/cm^2, Time 1 hour) it was 100%; in [5] (setting [11]), 100%. Also, the “Houston (% dead (SE))” value amounted to 100% in test [1] (setting [16]); 100% in [1] (setting [17]); 100% in test [1] (Dose 0.25 nm/cm^2, Time 1 hour); 100% in test [1] (setting [10]); 100% in test [1] (Dose 2.5 nm/cm^2, Time 1 hour); 100% in test [1] (setting [11]). For the same compound, the “KDR Resisant An. Gambiae (% dead (SE))” value worked out at 10% in [2] (setting [18]); 25% in [2] (setting [19]); 47% in test [2] (setting [20]); 86% in [2] (setting [21]); 100% in test [2] (setting [12]); 100% in test [2] (setting [13]). Also, the “KDR Resisant An. Gambiae (% dead (SE))” value in test [2] (setting [14]) and in test [2] (setting [15]) was 100% each time. Also, in [2], the “effectiveness against knockdown resistant strains” value is given as “less effective”. In addition, the “Susceptible An. Gambiae (% dead (SE))” value in test [3] (setting [18]) is recorded as 100%; in [3] (setting [19]) it was 86%; in [3] (setting [20]), 100%; in [3] (setting [21]), 100%; in test [3] (setting [12]), 100%; in test [3] (setting [13]) it was 100%. Moreover, the “Susceptible An. Gambiae (% dead (SE))” value in test [3] (setting [14]) and in test [3] (setting [15]) was 100% in each case. Besides, the “Isla mujeres (% dead (SE))” value amounted to 56.3% in test [4] (setting [16]); 21.89% in [4] (setting [17]); 100% in test [4] (Dose 0.25 nm/cm^2, Time 1 hour); 77.27% in test [4] (setting [10]); 100% in test [4] (Dose 2.5 nm/cm^2, Time 1 hour); 100% in test [4] (setting [11]).

Regarding `CC1(C)C(C=C(Cl)Cl)C1C(=O)OC(C#N)c1cccc(Oc2ccccc2)c1` (stereo not drawn) [Alpha-cypermethrin, alpha cypermethrin, reference compound], the “Thai (% dead (SE))” value was determined as 100% in [5] (Dose 0.25 nm/cm^2, Time 1 hour); 83.9% in test [5] (setting [10]); 100% in test [5] (Dose 2.5 nm/cm^2, Time 1 hour); 100% in test [5] (setting [11]). In addition, the “Houston (% dead (SE))” value is listed as 100% in test [1] (Dose 0.25 nm/cm^2, Time 1 hour); 100% in test [1] (setting [10]); 100% in test [1] (Dose 2.5 nm/cm^2, Time 1 hour); 100% in test [1] (setting [11]). Besides, the “Isla mujeres (% dead (SE))” value in test [4] (Dose 0.25 nm/cm^2, Time 1 hour) stood at 96.66%; in test [4] (setting [10]) it was 41.06%; in [4] (Dose 2.5 nm/cm^2, Time 1 hour), 100%; in [4] (setting [11]) it was 100%.

For `CC(C)c1cccc(COC(=O)C2C(C=C(Cl)C(F)(F)F)C2(C)C)c1F` (stereo not drawn) [Compound 1415], the “contact irritancy, tolerant strain (FIG. 4)” value in test [6] is recorded as “contact irritants for tolerant strains”. For the same compound, the “contact irritancy, dose compared with alphacypermethrin (FIG. 1)” value in test [7] is “showed contact irritancy at a lower dose than alphacypermethrin”. Also, the “contact irritancy (FIG. 1)” value in test [7] (10 minutes) was “showed contact irritancy at relatively low doses”. Besides, in test [8], the “contact irritancy and spatial repellency relative to screened compounds (FIG. 3)” value was “superior contact irritancy and spatial repellency relative to most screened compounds”. Besides, the “spatial repellency, all strains (FIG. 5)” value in test [9] is on record as “spatial repellants for all strains”.

In the case of `CC1(C)[C@H](C=C(Cl)Cl)[C@H]1C(=O)OCc1c(F)c(F)cc(F)c1F` [Transfluthrin, transfluthrin, reference compound], the “Thai (% dead (SE))” value was found to be 100% in [5] (setting [16]); 91.7% in test [5] (setting [17]); 100% in test [5] (Dose 0.25 nm/cm^2, Time 1 hour); 100% in test [5] (setting [10]); 100% in test [5] (Dose 2.5 nm/cm^2, Time 1 hour); 100% in test [5] (setting [11]). Further, the “Houston (% dead (SE))” value was 100% in test [1] (setting [16]); 100% in test [1] (setting [17]); 100% in test [1] (Dose 0.25 nm/cm^2, Time 1 hour); 100% in test [1] (setting [10]); 100% in [1] (Dose 2.5 nm/cm^2, Time 1 hour); 100% in [1] (setting [11]). Also, the “Isla mujeres (% dead (SE))” value was 100% in [4] (setting [16]); 1.6% in test [4] (setting [17]); 100% in test [4] (Dose 0.25 nm/cm^2, Time 1 hour); 100% in [4] (setting [10]); 100% in [4] (Dose 2.5 nm/cm^2, Time 1 hour); 100% in test [4] (setting [11]).
